Laboratory results published in ChEMBL document CHEMBL1201862, “PubChem BioAssay data set” (2004).
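Tested at 5 concentrations; 48 h exposure; 96-well plates; endpoints linearly interpolated, else capped at highest concentration. GI50 = concentration required for 50% inhibition of growth.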 The source made the active and inactive calls. Rule as the data show it: active = GI50 up to about 1.1 µM and inactive = higher.

Experiments:
Assay in all cases: inhibition of tumour cell growth, NCI panel, 48 h
SNB-75 = system: SNB-75
NCI-H23 = system: NCI-H23
TK-10 = system: TK-10
SK-OV-3 = system: SK-OV-3
HCT-15 = system: HCT-15
HOP-62 = system: HOP-62
NCI-H522 = system: NCI-H522
A549 = system: A549
RXF 393 = system: RXF 393
Malme-3M = system: Malme-3M
UO-31 = system: UO-31
M14 = system: M14
SF-268 = system: SF-268
UACC-62 = system: UACC-62
U-251 = system: U-251
HL-60 = system: HL-60
SK-MEL-28 = system: SK-MEL-28
NCI-H226 = system: NCI-H226
786-0 = system: 786-0
HCC 2998 = system: HCC 2998

| SMILES | GI50 (SNB-75) | GI50 (NCI-H23) | GI50 (TK-10) | GI50 (SK-OV-3) | GI50 (HCT-15) | GI50 (HOP-62) | GI50 (NCI-H522) | GI50 (A549) | GI50 (RXF 393) | GI50 (Malme-3M) | GI50 (UO-31) | GI50 (M14) | GI50 (SF-268) | GI50 (UACC-62) | GI50 (U-251) | GI50 (HL-60) | GI50 (SK-MEL-28) | GI50 (NCI-H226) | GI50 (786-0) | GI50 (HCC 2998) |
| --- | --- | --- | --- | --- | --- | --- | --- | --- | --- | --- | --- | --- | --- | --- | --- | --- | --- | --- | --- | --- |
| NCCSc1nc2ccccc2s1 | 22.8 µM (inactive) | 41.7 µM (inactive) | 24.9 µM (inactive) | 32.1 µM (inactive) | 42.9 µM | 23.8 µM (inactive) | 28.1 µM (inactive) | 48.3 µM (inactive) | 29.5 µM (inactive) | 50.8 µM (inactive) | 43.8 µM (inactive) | 33.7 µM (inactive) | 32.5 µM (inactive) | 31.3 µM (inactive) | 21.7 µM (inactive) | 73.5 µM (inactive) | > 100 µM (inactive) | 36.6 µM (inactive) | 26.6 µM (inactive) |  |
| O=C(c1ccccc1)C1C[C@H]2CO[C@H](c3ccccc3)N2C1=O (stereo partly specified) | > 100 µM (inactive) | > 100 µM (inactive) | > 100 µM (inactive) |  | > 100 µM |  | > 100 µM (inactive) | > 100 µM (inactive) | > 100 µM (inactive) | > 100 µM (inactive) | > 100 µM (inactive) | > 100 µM (inactive) | > 100 µM (inactive) | > 100 µM (inactive) | > 100 µM (inactive) |  | > 100 µM (inactive) | > 100 µM (inactive) | > 100 µM (inactive) | > 100 µM (inactive) |
| C[N+](C)(CCNC(=O)c1cccc2cc3ccccc3nc12)Cc1ccc([N+](=O)[O-])s1 | > 25 µM (inactive) | > 25 µM (inactive) | > 25 µM (inactive) | > 25 µM (inactive) | > 25 µM | > 25 µM (inactive) | > 25 µM (inactive) | > 25 µM (inactive) | > 25 µM (inactive) | > 25 µM (inactive) | > 25 µM (inactive) | > 25 µM (inactive) | > 25 µM (inactive) | > 25 µM (inactive) | > 25 µM (inactive) | 10.9 µM (inactive) | > 25 µM (inactive) | > 25 µM (inactive) | > 25 µM (inactive) |  |
| O=C1c2ccccc2C(=O)N1CCSCC(CO)SCCN1C(=O)c2ccccc2C1=O (stereo unspecified) |  | > 100 µM (inactive) | > 100 µM (inactive) | > 100 µM (inactive) | > 100 µM | > 100 µM (inactive) | 62.5 µM (inactive) | > 100 µM (inactive) | > 100 µM (inactive) | > 100 µM (inactive) | > 100 µM (inactive) | 96.8 µM (inactive) | > 100 µM (inactive) | 90.2 µM (inactive) | > 100 µM (inactive) | 9.98 µM (inactive) | > 100 µM (inactive) | > 100 µM (inactive) | > 100 µM (inactive) | > 100 µM (inactive) |
| COc1cc(C2c3cc4c(cc3OC(NCCO)C2C)OCO4)cc(OC)c1O (stereo unspecified) | 7.45 µM (inactive) | 24.6 µM (inactive) | 12.8 µM (inactive) |  | 3.44 µM |  | 3.27 µM (inactive) | 10.1 µM (inactive) | 20.4 µM (inactive) | 6.37 µM (inactive) | 24.5 µM (inactive) | 9.55 µM (inactive) | 39.6 µM (inactive) | 2.94 µM (inactive) | 6.08 µM (inactive) |  | 7.64 µM (inactive) | 49.3 µM (inactive) | 8.26 µM (inactive) | 5.81 µM (inactive) |
| Cc1ccc(/C=C2/N/C(=N\N=C/c3ccccc3)NC2=O)cc1 | 31.3 µM (inactive) | 54.2 µM (inactive) | 32.2 µM (inactive) | 40.3 µM (inactive) | 30.9 µM | 54.6 µM (inactive) | 31.8 µM (inactive) | 44.2 µM (inactive) | 26.5 µM (inactive) | 42.5 µM (inactive) | 18.4 µM (inactive) | 31.7 µM (inactive) | 77.1 µM (inactive) |  | 26 µM (inactive) |  | 36.4 µM (inactive) | > 100 µM (inactive) | 20.3 µM (inactive) | 28.9 µM (inactive) |
| Cc1c(NC(=S)NN)c(=O)n(-c2ccccc2)n1C | 20 µM (inactive) |  | > 100 µM (inactive) | > 100 µM (inactive) | > 100 µM | > 100 µM (inactive) | 0.637 µM (active) | > 100 µM (inactive) | > 100 µM (inactive) | 32.3 µM (inactive) | > 100 µM (inactive) | > 100 µM (inactive) | > 100 µM (inactive) | > 100 µM (inactive) | > 100 µM (inactive) | > 100 µM (inactive) | > 100 µM (inactive) | 1.58 µM (inactive) | > 100 µM (inactive) |  |
| C/C=C1\CC(C(=O)OCC)CCCCCCC1=O (stereo unspecified) | 69 µM (inactive) | > 100 µM (inactive) | > 100 µM (inactive) | > 100 µM (inactive) | > 100 µM | > 100 µM (inactive) | 99.8 µM (inactive) | > 100 µM (inactive) | > 100 µM (inactive) | > 100 µM (inactive) | > 100 µM (inactive) | > 100 µM (inactive) | > 100 µM (inactive) | 59.2 µM (inactive) | > 100 µM (inactive) | 51.1 µM (inactive) | > 100 µM (inactive) | > 100 µM (inactive) | > 100 µM (inactive) |  |
